From ChEMBL document CHEMBL4483862, “Open-source discovery of chemical leads for next-generation chemoprotective antimalarials” (2018)

Test system: Plasmodium berghei
Experiment: Luciferase/luciferin-expressing antifolate-resistant parasites were used to infect a culture of HepG2 cells that were pre-incubated with compounds. Infected hepatocytes emit light due to the luciferase reaction. Assay results are presented as the percent inhibition of light emission compared to control. […]
Assay type: functional
Conditions: sporozoite; for IC50: read-out: LUCIFERASE INFECTION ASSAY - IC50; for IC90: read-out: LUCIFERASE INFECTION ASSAY - IC90

SMILES	IC50	IC90
O=c1c2ccc(Cl)cc2nc(-c2cccc(C(F)(F)F)c2)n1O	> 9.69 µM	> 9.69 µM
N#Cc1cc(NC(=O)c2ccc(Cl)cc2)ccc1Sc1ccccc1	> 9.04 µM	> 9.04 µM
CSCc1cc(N2CCOCC2)nc(SCc2ccc(Cl)cc2Cl)n1	> 7.93 µM	> 7.93 µM
O=C1C=C(c2ccccc2)C(=O)N1Nc1ccccc1	> 12.5 µM	> 12.5 µM
Cc1ccc(NN2C(=O)C=C(c3ccc(Cl)cc3)C2=O)cc1	> 10.6 µM	> 10.6 µM
COc1ccc(CNC(N)=O)cc1	> 18.3 µM	> 18.3 µM
CN(C)c1cccc(-c2ccc3nnc(-c4cscn4)n3c2)c1	> 10 µM	> 10 µM
COc1ccc(-c2ccc3nnc(-c4cscn4)n3c2)c(C)c1	> 10 µM	> 10 µM
Cc1ccc(C(O)c2nnc(Nc3cc(C(F)(F)F)ccc3F)s2)cc1 (configuration not stated)	> 10 µM	> 10 µM
COc1ccc(-n2ncc(N3CCC(=O)CC3)c(Cl)c2=O)cc1	> 9.89 µM	> 9.89 µM
OC(c1cc(F)c(F)c(F)c1)c1nnc(Nc2cccc(Cl)c2)s1 (configuration not stated)	> 10 µM	> 10 µM
FC(F)(F)c1nc2ccccc2n2c(-c3ccc(Br)cc3)nnc12	> 8.39 µM	> 8.39 µM
CCOC(=O)c1ccc(N/C=C(\C(C)=O)c2ccc(OC)c(OC)c2)cc1	> 8.93 µM	> 8.93 µM
CC(C)c1ccc(-c2ccc3nnc(-c4ccc5nccnc5c4)n3c2)cc1	> 10 µM	> 10 µM
CC(=O)c1ccc(NC(=O)Nc2ccc3nc(-c4cccc(F)c4)nn3c2)cc1	5.52 µM	> 10 µM
Clc1cccc(-c2cc3[nH]c(NCc4ccccc4)nc3cn2)c1	> 10 µM	> 10 µM
CNC(=O)c1cccc(-c2cc(C3(CNc4ccccc4F)CC3)ccn2)c1	> 10 µM	> 10 µM
COc1cc(NC(=O)c2csc(C(O)c3cccc(C(F)(F)F)c3)n2)cc(OC)c1OC (configuration not stated)	> 10 µM	> 10 µM
CC(C)c1cccc(-c2ccc3nnc(-c4ccc(OCCCN(C)C)cc4)n3c2)c1	> 10 µM	> 10 µM
CN(C)c1cccc(NCC2(c3ccnc(-c4ccccc4Cl)c3)CC2)c1	> 10 µM	> 10 µM
COc1cc(-c2ccnc3n[nH]c(-c4ccccc4)c23)cc(OC)c1OC	3.13 µM	> 10 µM
CC(C)(C)N1C(=O)CC(=O)CC1c1ccc(Cl)cc1 (configuration not stated)	9.51 µM	11.1 µM

SMILES	IC50	IC90
O=C(NNC(=O)c1[nH]c2ccccc2c1-c1ccccc1)Nc1cccc(C(F)(F)F)c1	> 7.53 µM	> 7.53 µM
CC(=O)c1ccc(NC(=O)Nc2ccc3nc(-c4cccc(C(F)(F)F)c4)nn3c2)cc1	3.53 µM	7.78 µM
O=C(Nc1ccccc1)OCc1cccnc1Sc1ccc(Cl)cc1	> 8.9 µM	> 8.9 µM
O=C(Nc1cccc(Cl)c1)c1csc(C(O)C2CCCCC2)n1 (configuration not stated)	> 10 µM	> 10 µM
COc1cc(-c2nc3ccc(NC(=O)c4c(C)noc4C)cn3n2)cc(OC)c1OC	> 10 µM	> 10 µM
FC(F)(F)c1cccc(-c2ccc3nnc(-c4cccc(Cl)c4)n3c2)c1	> 10 µM	> 10 µM
O=C(Nc1ccc2c(c1)OCO2)c1csc(C(O)c2cccc(C(F)(F)F)c2)n1 (configuration not stated)	> 10 µM	> 10 µM
COc1cccc(-c2ccnc3n[nH]c(-c4cccc(C(F)(F)F)c4)c23)c1	> 10 µM	> 10 µM
O=C(Nc1cc(Cl)cc(Cl)c1)OCc1ccc(Oc2ccccc2)c([N+](=O)[O-])c1	> 7.62 µM	> 7.62 µM
FC(F)(F)c1cnc(/C=N/Nc2ncc(C(F)(F)F)cc2Cl)c(Cl)c1	2.69 µM	3.13 µM
COc1ccc(Sc2ccc(NC(=O)c3ccc(F)cc3)cc2C#N)cc1	> 8.72 µM	> 8.72 µM
CC(C)c1ccc(NC(=O)Nc2ccc3nc(-c4ccco4)nn3c2)cc1	> 10 µM	> 10 µM
CC(C)c1ccc(-c2ccc3nnc(-c4ccc(OCCCN(C)C)cc4)n3c2)cc1	> 10 µM	> 10 µM
Cc1cc2c(cc1C)NC(c1c(O)ccc3ccccc13)C1C(=O)CC(C)(C)CC1=N2 (configuration not stated)	7.67 µM	> 8 µM
O=C(Nc1ccc(OC(F)(F)F)cc1)Nc1ccc2nc(-c3ccoc3)nn2c1	10 µM	> 10 µM
Cc1ccc(C(=O)C(/C=N/N)=N/Nc2cc(Cl)cc(Cl)c2)cc1	9.09 µM	> 9.45 µM
FC(F)(F)c1nc2ccccc2nc1N/N=C/C=C/c1ccccc1	> 9.64 µM	> 9.64 µM
CNc1cc(CSCc2ccc(Cl)cc2)nc(-c2ccccc2)n1	> 9.27 µM	> 9.27 µM
O=c1c(NS(=O)(=O)c2ccc(Cl)cc2)cccn1Cc1ccc(Cl)c(Cl)c1	> 7.44 µM	> 7.44 µM
CN(C)c1nn(C(=S)Nc2cccc(C(F)(F)F)c2)cc1-c1ccccc1	> 8.45 µM	> 8.45 µM
COc1cccc(NCC2(c3ccnc(-c4ccccc4Cl)c3)CC2)c1	> 10 µM	> 10 µM
Cc1ccc(NC(=O)Nc2ccc3nc(-c4ccccc4)nn3c2)cc1	> 10 µM	> 10 µM

SMILES	IC50	IC90
O=C(Nc1ccc(F)cc1F)c1nnsc1S(=O)(=O)c1ccc(Cl)cc1	> 7.94 µM	> 7.94 µM
CN(C)C(=O)c1ccc(-c2ccnc3n[nH]c(-c4cccc(Cl)c4)c23)cc1	4.64 µM	> 10 µM
COc1cccc(NC(=O)c2csc(C(O)c3cccc(C(F)(F)F)c3)n2)c1 (configuration not stated)	> 10 µM	> 10 µM
N#Cc1cc(NC(=O)c2cccc(Cl)c2)ccc1Sc1cccc(C(F)(F)F)c1	> 7.62 µM	> 7.62 µM
O=C(Nc1cccc(F)c1)Nc1ccc2nc(-c3cccnc3)nn2c1	> 10 µM	> 10 µM
CS(=O)(=O)c1ccc(-c2cc(C3(CNc4cccc(Cl)c4)CC3)ccn2)cc1	> 10 µM	> 10 µM
COc1ccc(S(=O)(=O)NN(C)c2nc3ccccc3nc2C(F)(F)F)cc1	5.18 µM	> 8 µM
COc1ccc(-c2nc3ccc(NC(=O)Nc4ccc(OC)c(OC)c4)cn3n2)cc1	> 10 µM	> 10 µM
Cc1ccccc1Sc1ccc(NC(=O)c2ccc(F)cc2)cc1C#N	> 9.11 µM	> 9.11 µM
CC(C)c1cccc(Nc2nnc(C(O)c3ccccc3Cl)s2)c1 (configuration not stated)	> 10 µM	> 10 µM
COc1ccccc1-c1nc2ccc(NC(=O)c3cc(C(C)(C)C)nn3C)cn2n1	> 10 µM	> 10 µM
CCOC(=O)c1nnsc1[S+]([O-])c1ccc(Cl)cc1 (configuration not stated)	> 10.4 µM	> 10.4 µM
O=C(NC1CC1)c1csc(C(O)c2cccc(Cl)c2)n1 (configuration not stated)	3.36 µM	> 10 µM
COc1cccc(C(=O)Nc2ccc(Sc3cccc(C(F)(F)F)c3)c(C#N)c2)c1	> 7.7 µM	> 7.7 µM
COc1cc(-n2nnnc2-c2ccc([N+](=O)[O-])cc2)c(Cl)cc1Cl	> 9.01 µM	> 9.01 µM
COc1cc(NC(=O)c2sccc2Oc2ccccc2[N+](=O)[O-])c(Cl)cc1Cl	> 7.51 µM	> 7.51 µM
COc1ccc(NC(=O)Nc2ccc3nc(-c4ccccc4)nn3c2)cc1OC	> 10 µM	> 10 µM
Clc1ccc2[nH]c(-c3cccs3)c(-c3ccccc3)c2c1	5.01 µM	> 10.7 µM
FC(F)(F)c1cnc(N/N=C/c2ccccn2)c(Cl)c1	3.33 µM	4 µM
N#Cc1cc(NC(=O)c2ccc(F)cc2)ccc1Sc1cccc(C(F)(F)F)c1	3.07 µM	> 7.93 µM
O=C(/C=C/c1ccco1)Nc1ccc(Cl)cc1Cl	9.77 µM	11.1 µM
CN(NC(=O)c1cccc(C(F)(F)F)c1)c1c(C#N)c(C(F)(F)F)nn1C	> 8.43 µM	> 8.43 µM

SMILES	IC50	IC90
O=C(Nc1cccc(Cl)c1)Nc1ccc2nc(Cc3ccccc3)nn2c1	2.79 µM	3.2 µM
CC(=N\Nc1ccc(F)cc1)/C(=N/O)C(=O)Nc1ccccc1	> 10.5 µM	> 10.5 µM
COc1ccc(C(=O)Nc2ccc3nc(-c4ccccc4)nn3c2)cc1OC	> 10 µM	> 10 µM
Fc1ccc(CNCC2(c3ccnc(-c4ccc(Cl)cc4)c3)CC2)cc1F	> 10 µM	> 10 µM
c1ccc(Oc2cccc(-c3ccc4nnc(-c5ccccc5)n4c3)c2)cc1	> 10 µM	> 10 µM
COc1ccc(C(=O)Nc2ccc3nc(-c4ccccc4OC)nn3c2)cc1OC	> 10 µM	> 10 µM
N#Cc1[nH]c2ccc(Cl)cc2c1-c1ccccc1	> 13.1 µM	> 13.1 µM
O=C(Nc1ccc(Oc2ccccc2)cc1)c1csc(C(O)c2ccccc2)n1 (configuration not stated)	1.63 µM	7.41 µM
O=S(=O)(Cc1cc(N2CCN(c3ccccc3)CC2)nc(-c2ccccn2)n1)c1ccccc1	> 7 µM	> 7 µM
O=C(Nc1nc(=O)n(C(=O)c2cccs2)s1)c1ccccc1	> 9.96 µM	> 9.96 µM
C=C(C)C(=O)Nc1ccc([N+](=O)[O-])cc1Cl	> 13.7 µM	> 13.7 µM
COc1ccc(-c2cc(C3(CNCc4ccc(N(C)C)cc4)CC3)ccn2)cn1	> 10 µM	> 10 µM
O=C(Nc1cccc(F)c1)C1(c2ccnc(Nc3ccc(C(F)(F)F)cc3)c2)CC1	> 10 µM	> 10 µM
COc1ccc(NC(=O)Nc2ccc3nc(-c4ccccc4OC)nn3c2)cc1OC	> 10 µM	> 10 µM
COc1cccc(-c2nc3ccc(NC(=O)Nc4cccc(C(C)=O)c4)cn3n2)c1	> 10 µM	> 10 µM
[O-][S+](Cc1cc(N2CCCCC2)nc(-c2ccccn2)n1)c1ccc(Cl)cc1 (configuration not stated)	> 7.99 µM	> 7.99 µM
Clc1ccc(SCc2cc(NCc3ccccc3)nc(-c3cccnc3)n2)cc1	6.53 µM	7.84 µM
O=C(Nc1ccc(F)cc1)c1csc(C(O)c2cccc(Cl)c2)n1 (configuration not stated)	> 10 µM	> 10 µM
OC(c1ccc(Cl)cc1)c1nnc(Nc2cc(C(F)(F)F)ccc2F)s1 (configuration not stated)	> 10 µM	> 10 µM
COc1ccc(Sc2ccc(NC(=O)c3ccc(Cl)cc3Cl)cc2C#N)cc1	> 7.69 µM	> 7.69 µM
